Counter-ions that a name gives are not always drawn.
Experiments:
[1] = In situ perfusion: survival until experimental end-point; type: in vivo, Wistar rats; conditions: irinotecan 60 mg/kg single i.v.
[2] = irinotecan 60 mg/kg i.v. (HyCAMP 26.6/60); 90 minute time point
[3] = irinotecan 30 mg/kg i.v. (HyCAMP 26.6/30); 120 min
[4] = irinotecan 30 mg/kg i.v.
[5] = target: T1, tumour cell endogenous beta-glucuronidase (Homo sapiens, UniProt P08236); assay: Endogenous beta-glucuronidase activity in tumour cell lysates incubated overnight with HA, compared to samples not containing hyaluronan; type: biochemical; conditions: modelled from ≧2 μg of HA per μg tumour cell protein and 0.135 ng protein/cell
T1 construct: Activity of Endogenous Beta-Glucuronidase in Tumor Cells In Vitro; endogenous in cells; host or cells: HCT-116, LIM-1215, LIM-2099, SK-CO1, SW-1222, HT-29, SW-620, MSTO-211H, MDA-MB-468, MDA-MB-435 lysates
T1 sequence (P08236 23-651): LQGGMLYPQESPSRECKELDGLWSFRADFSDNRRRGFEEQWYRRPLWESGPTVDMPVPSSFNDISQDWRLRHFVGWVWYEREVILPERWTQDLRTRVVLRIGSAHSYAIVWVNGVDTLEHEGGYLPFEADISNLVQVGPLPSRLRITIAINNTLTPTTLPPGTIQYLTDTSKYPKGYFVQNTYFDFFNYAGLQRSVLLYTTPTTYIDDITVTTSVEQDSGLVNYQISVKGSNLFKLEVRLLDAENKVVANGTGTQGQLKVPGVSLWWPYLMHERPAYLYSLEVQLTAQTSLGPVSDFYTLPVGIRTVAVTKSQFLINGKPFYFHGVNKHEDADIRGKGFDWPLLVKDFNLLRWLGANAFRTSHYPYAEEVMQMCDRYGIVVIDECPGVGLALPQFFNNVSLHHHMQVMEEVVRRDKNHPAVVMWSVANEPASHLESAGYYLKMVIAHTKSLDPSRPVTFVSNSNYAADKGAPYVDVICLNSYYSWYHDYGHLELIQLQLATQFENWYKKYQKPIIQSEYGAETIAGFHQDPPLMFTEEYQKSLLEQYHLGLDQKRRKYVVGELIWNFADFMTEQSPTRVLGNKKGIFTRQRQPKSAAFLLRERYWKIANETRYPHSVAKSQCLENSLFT
Description: Stocks of the tumor cell lysates (0.8 mg protein/ml) were prepared from the original cell lysates. The hyaluronan stock of 10 mg/ml (10 kDa & 860 kDa) was diluted with potassium phosphate buffer to achieve 8 mg/ml, 3.2 mg/ml, 1.6 mg/ml, 0.4 mg/ml, 0.2 mg/ml, 0.04 mg/ml, 0.02 mg/ml and 0.0008 mg/ml of hyaluronan. The 25 mg/ml of <2 kDa HA was diluted further with potassium phosphate buffer to achieve 8 mg/ml, 3.2 mg/ml, 1.6 mg/ml, 0.4 mg/ml, 0.2 mg/ml, 0.04 mg/ml, 0.02 mg/ml and 0.0008 mg/ml of hyaluronan. The assay samples were prepared by aliquoting 125 μl of the different dilutions of hyaluronan to an Eppendorf tube containing 125 μl of 0.8 mg protein/ml cell lysates of the following cell lines; HCT-116, LIM-1215, LIM-2099, SK-CO1, SW-1222, HT-29, SW-620, MSTO-211H, MDA-MB-468 and MDA-MB-435. […] On completion of the incubation, the samples were thoroughly mixed by repeated invert mixing (˜20 times) after which the beta-glucuronidase was quantified using the 96-well-plate method.
The assay was performed in the wells of a black clear-bottom 96-well-plate where 50 μL of the tumour cell lysates (20 μg protein) were added to the wells and 50 μL of 75 mM of potassium phosphate buffer was used as the control blanking well. […] On completion of the incubation, 50 μL of stop buffer was added and the plate was read at 350 nm excitation and 450 nm emission on a Fluostar Optima plate reader.

[6] = tested on: Carboxylesterase; assay: Carboxylesterase activity in tissue homogenates of the liver and the GI-tract; type: biochemical
Description: Carboxylesterase • 2. beta-glucuronidase
Tissue homogenates of the liver and the GI-tract were used as the source of each enzyme. […] In addition to this mechanism, inhibition of beta-glucuronidase in the lumen of the GI tract would prevent the generation of SN-38 from SN-38G.

[7] = in vivo
Description: HA. […] All body organs and fluids were removed, weighed and [^3H] radioactivity quanitated using β-scintillation counting.

CCc1c2c(nc3ccc(OC(=O)N4CCC(N5CCCCC5)CC4)cc13)-c1cc3c(c(=O)n1C2)COC(=O)[C@]3(O)CC [CPT-11, Irinotecan hydrochloride]
survival until experimental end-point [1]: only one rat survived
cumulative biliary excretion of CPT-11 [2]: 1388 µg
cumulative intestinal exsorption of CPT-11 [3]: 525 µg
quantities of SN-38 found in the spleen and lung [4]: could not be detected

hyaluronan [HA]
HA per cell resulting in stimulation of endogenous beta-glucuronidase activity [5]: ≥ 270 pg HA/cell
effect on carboxylesterase activity [6]: did not affect the activity of carboxylesterase
HA per tumour cell [7]: 51.6 pg of HA/cell
HA that would accumulate per gram of tumour [7]: approximately 51.6 mg

From patent US8937052B2, “Therapeutic protocols using hyaluronan” (Alchemia Oncology Pty Limited, priority 2005, dated 2015)
